Results taken from patent publication US20070128217A1 (priority 2003, published 2007).

Legend:
[1] = tested on: antibodies in sera from SARS patients (sera 1a, 1b, 2, 6, 37, 62, London, SARS-yellow, SARS-green); assay type: binding, human; parameters: Binding of serum 6 to linear peptides of protein X1 of SARS-CoV Urbani / Binding of serum 37 to linear peptides of protein X1 of SARS-CoV Urbani / Binding of serum 6 to looped/cyclic peptide (PEPSCAN-ELISA) / Binding of serum 37 to looped/cyclic peptide (PEPSCAN-ELISA) / Binding of serum 37 to looped/cyclic peptides of protein X1 of SARS-CoV Urbani / Binding of serum 6 to linear peptides of protein X2 / Binding of serum 37 to linear peptides of protein X2 / Binding of serum 37 to looped/cyclic peptides of protein X2 of SARS-CoV Urbani / Binding of serum 6 to linear peptides of protein M of SARS-CoV Urbani / Binding of serum 37 to linear peptides of protein M of SARS-CoV Urbani / Binding of serum 6 to looped/cyclic peptides of protein M of SARS-CoV Urbani / Binding of serum 37 to looped/cyclic peptides of protein M of SARS-CoV Urbani / Binding of serum 6 to linear peptides of protein X3 of SARS-CoV Urbani / Binding of serum 37 to linear peptides of protein X3 of SARS-CoV Urbani / Binding of serum 37 to looped/cyclic peptides of protein X3 of SARS-CoV Urbani / Binding of serum 6 to linear peptides of protein X4 of SARS-CoV Urbani / Binding of serum 37 to linear peptides of protein X4 of SARS-CoV Urbani / Binding of serum 37 to looped/cyclic peptides of protein X4 of SARS-CoV Urbani / Binding of serum 6 to linear peptides of protein X5 of SARS-CoV Urbani / Binding of serum 37 to linear peptides of protein X5 of SARS-CoV Urbani / Binding of serum 37 to looped/cyclic peptides of protein X5 of SARS-CoV Urbani / Binding of serum 6 to linear peptides of protein N of SARS-CoV Urbani / Binding of serum 37 to linear peptides of protein N of SARS-CoV Urbani / Binding of serum 6 to linear peptide (PEPSCAN-ELISA) / Binding of serum 1a to looped/cyclic peptides of protein N of SARS-CoV Urbani / Binding of serum 1b to looped/cyclic peptides of protein N of SARS-CoV Urbani / Binding of serum 2 to looped/cyclic peptides of protein N of SARS-CoV Urbani / Binding of serum 6 to looped/cyclic peptides of protein N of SARS-CoV Urbani / Binding of serum 37 to looped/cyclic peptides of protein N of SARS-CoV Urbani / Binding of serum 62 to looped/cyclic peptides of protein N of SARS-CoV Urbani / Binding of serum London to looped/cyclic peptides of protein N of SARS-CoV Urbani / Binding of serum SARS-green to looped/cyclic peptides of protein N of SARS-CoV Urbani: unit not given here
[2] = tested on: control sera (pooled serum of ten healthy LUMC hospital workers; commercial negative donor pooled serum from the Dutch bloodbank); assay type: binding, human; parameters: Binding of Control serum LUMC to linear peptides / Binding of Control serum Blood-bank to linear peptides / Binding of Control serum LUMC to looped peptides / Binding of Control Serum Blood-Bank to Looped peptides / Binding of Control serum LUMC to linear peptides of the protein M of SARS-CoV Urbani / Binding of Control serum Blood-bank to linear peptides of the protein M of SARS-CoV Urbani / Binding of Control serum LUMC to looped peptides of the protein M of SARS-CoV Urbani / Binding of Control Serum Blood-Bank to Looped peptides of the protein M of SARS-CoV Urbani: unit not given here
[3] = tested on: rabbit serum obtained by immunizing a rabbit with the SARS-CoV strain Frankfurt 1; assay type: binding; parameters: Binding of a rabbit serum to linear peptides / Binding of a rabbit serum to looped peptides / Rabbit serum linear peptides / Rabbit serum looped peptides / Binding of a rabbit serum to linear peptides of protein N of SARS-CoV Urbani (Rabbit serum linear peptides) / Binding of a rabbit serum to looped/cyclic peptides of protein N of SARS-CoV Urbani (Rabbit serum looped peptides): unit not given here

SHLLLVAAGMEAQFL
Binding of serum 1a to linear peptides of protein X1 of SARS-CoV Urbani [1]: 0.8 | Binding of serum 1a to looped/cyclic peptide (PEPSCAN-ELISA) [1]: 0.2 | Binding of serum 1b to linear peptides of protein X1 of SARS-CoV Urbani [1]: 0.7 | Binding of serum 1b to looped/cyclic peptide (PEPSCAN-ELISA) [1]: 0.5 | Binding of serum 2 to linear peptides of protein X1 of SARS-CoV Urbani [1]: 0.7 | Binding of serum 2 to looped/cyclic peptide (PEPSCAN-ELISA) [1]: 0.1 | Binding of serum 6 to linear peptides of protein X1 of SARS-CoV Urbani [1]: 0.6 | Binding of serum 6 to looped/cyclic peptide (PEPSCAN-ELISA) [1]: 0.1 | Binding of serum 37 to linear peptides of protein X1 of SARS-CoV Urbani [1]: 0.8 | Binding of serum 37 to looped/cyclic peptide (PEPSCAN-ELISA) [1]: 0.1 | Binding of serum 62 to linear peptides of protein X1 of SARS-CoV Urbani [1]: 0.8 | Binding of serum 62 to looped/cyclic peptide (PEPSCAN-ELISA) [1]: 0.2 | Binding of serum London to linear peptides of protein X1 of SARS-CoV Urbani [1]: 0.3 | Binding of serum London to looped/cyclic peptide (PEPSCAN-ELISA) [1]: 0.1 | Binding of serum SARS-green to linear peptides of protein X1 of SARS-CoV Urbani [1]: 0.3 | Binding of serum SARS-green to looped/cyclic peptide (PEPSCAN-ELISA) [1]: 0.5 | Binding of serum SARS-yellow to linear peptides of protein X1 of SARS-CoV Urbani [1]: 0.7 | Binding of serum SARS-yellow to looped/cyclic peptide (PEPSCAN-ELISA) [1]: 0.0 | Binding of Control Serum Blood-Bank to Looped peptides [2]: 0.4 | Binding of Control serum Blood-bank to linear peptides [2]: 0.7 | Binding of Control serum LUMC to linear peptides [2]: 0.7 | Binding of Control serum LUMC to looped peptides [2]: 0.2 | Binding of a rabbit serum to linear peptides [3]: 0.5 | Binding of a rabbit serum to looped peptides [3]: 0.0

ALGKVLPFHRWHTMV
Binding of serum 1a to linear peptides of protein X5 of SARS-CoV Urbani [1]: 0.9 | Binding of serum 1a to looped/cyclic peptides of protein X5 of SARS-CoV Urbani [1]: 0.4 | Binding of serum 1b to linear peptides of protein X5 of SARS-CoV Urbani [1]: 0.5 | Binding of serum 1b to looped/cyclic peptides of protein X5 of SARS-CoV Urbani [1]: 0.0 | Binding of serum 2 to linear peptides of protein X5 of SARS-CoV Urbani [1]: 0.7 | Binding of serum 2 to looped/cyclic peptides of protein X5 of SARS-CoV Urbani [1]: 0.6 | Binding of serum 6 to linear peptides of protein X5 of SARS-CoV Urbani [1]: 0.6 | Binding of serum 6 to looped/cyclic peptides of protein X5 of SARS-CoV Urbani [1]: 0.3 | Binding of serum 37 to linear peptides of protein X5 of SARS-CoV Urbani [1]: 0.6 | Binding of serum 37 to looped/cyclic peptides of protein X5 of SARS-CoV Urbani [1]: 0.5 | Binding of serum 62 to linear peptides of protein X5 of SARS-CoV Urbani [1]: 0.7 | Binding of serum 62 to looped/cyclic peptides of protein X5 of SARS-CoV Urbani [1]: 0.5 | Binding of serum London to linear peptides of protein X5 of SARS-CoV Urbani [1]: 0.7 | Binding of serum London to looped/cyclic peptides of protein X5 of SARS-CoV Urbani [1]: 0.2 | Binding of serum SARS-green to linear peptides of protein X5 of SARS-CoV Urbani [1]: 0.5 | Binding of serum SARS-green to looped/cyclic peptides of protein X5 of SARS-CoV Urbani [1]: 0.6 | Binding of serum SARS-yellow to linear peptides of protein X5 of SARS-CoV Urbani [1]: 0.2 | Binding of serum SARS-yellow to looped/cyclic peptides of protein X5 of SARS-CoV Urbani [1]: 0.1 | Binding of Control Serum Blood-Bank to Looped peptides [2]: 0.1 | Binding of Control serum Blood-bank to linear peptides [2]: 0.8 | Binding of Control serum LUMC to linear peptides [2]: 0.5 | Binding of Control serum LUMC to looped peptides [2]: 0.5 | Rabbit serum linear peptides [3]: 0.6 | Rabbit serum looped peptides [3]: 0.1

NVQIHTIDGSSGVAN
Binding of serum 1a to linear peptides of protein X1 of SARS-CoV Urbani [1]: 0.7 | Binding of serum 1a to looped/cyclic peptides of protein X1 of SARS-CoV Urbani [1]: 0.2 | Binding of serum 1b to linear peptides of protein X1 of SARS-CoV Urbani [1]: 0.5 | Binding of serum 1b to looped/cyclic peptides of protein X1 of SARS-CoV Urbani [1]: 0.2 | Binding of serum 2 to linear peptides of protein X1 of SARS-CoV Urbani [1]: 0.5 | Binding of serum 2 to looped/cyclic peptides of protein X1 of SARS-CoV Urbani [1]: 0.1 | Binding of serum 6 to linear peptides of protein X1 of SARS-CoV Urbani [1]: 0.4 | Binding of serum 6 to looped/cyclic peptides of protein X1 of SARS-CoV Urbani [1]: 0.1 | Binding of serum 37 to linear peptides of protein X1 of SARS-CoV Urbani [1]: 0.7 | Binding of serum 37 to looped/cyclic peptides of protein X1 of SARS-CoV Urbani [1]: 0.3 | Binding of serum 62 to linear peptides of protein X1 of SARS-CoV Urbani [1]: 0.6 | Binding of serum 62 to looped/cyclic peptides of protein X1 of SARS-CoV Urbani [1]: 0.3 | Binding of serum London to linear peptides of protein X1 of SARS-CoV Urbani [1]: 0.3 | Binding of serum London to looped/cyclic peptides of protein X1 of SARS-CoV Urbani [1]: 0.2 | Binding of serum SARS-green to linear peptides of protein X1 of SARS-CoV Urbani [1]: 0.3 | Binding of serum SARS-green to looped/cyclic peptides of protein X1 of SARS-CoV Urbani [1]: 0.2 | Binding of serum SARS-yellow to linear peptides of protein X1 of SARS-CoV Urbani [1]: 0.4 | Binding of serum SARS-yellow to looped/cyclic peptides of protein X1 of SARS-CoV Urbani [1]: 0.1 | Binding of Control Serum Blood-Bank to Looped peptides [2]: 0.4 | Binding of Control serum Blood-bank to linear peptides [2]: 0.5 | Binding of Control serum LUMC to linear peptides [2]: 0.5 | Binding of Control serum LUMC to looped peptides [2]: 0.4 | Binding of a rabbit serum to linear peptides [3]: 0.1 | Binding of a rabbit serum to looped peptides [3]: 0.3
